From patent US8664257B2, “Oxygen-substituted 3-heteroaroylamino-propionic acid derivatives and their use as pharmaceuticals” (Sanofi, priority 2010, dated 2014)

Biological target: T1, Recombinant human cathepsin A (Homo sapiens, UniProt P10619)
T1 construct: Recombinant human cathepsin A (residues 29-480, with a C-terminal 10-His tag); 10-His (C); purchased R&D Systems 1049-SE
T1 sequence (P10619 29-312 limits assumed): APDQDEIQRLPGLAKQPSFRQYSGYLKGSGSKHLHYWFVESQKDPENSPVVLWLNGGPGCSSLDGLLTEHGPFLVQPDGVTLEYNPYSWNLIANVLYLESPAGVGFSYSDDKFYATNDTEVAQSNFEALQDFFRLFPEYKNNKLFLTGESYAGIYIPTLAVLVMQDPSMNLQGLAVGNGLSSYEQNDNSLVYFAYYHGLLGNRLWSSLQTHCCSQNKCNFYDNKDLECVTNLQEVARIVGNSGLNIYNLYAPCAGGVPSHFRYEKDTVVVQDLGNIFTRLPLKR
T1 sequence (P10619 327-480 limits assumed): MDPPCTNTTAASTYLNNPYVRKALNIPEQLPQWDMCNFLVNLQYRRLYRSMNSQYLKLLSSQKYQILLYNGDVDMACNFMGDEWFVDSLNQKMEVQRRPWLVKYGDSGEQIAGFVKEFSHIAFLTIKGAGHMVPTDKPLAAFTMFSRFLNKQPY
Assay: Cathepsin A inhibitory activity
Format: biochemical
Conditions: pharmacological test "Cathepsin A inhibitory activity"; IC50 given as class A/B/C; read-out: Activity (2): Cathepsin A inhibitory activity, IC50 class
Summary of the method: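 Human cathepsin A (res. 29-480, C-His10) pre-activated with cathepsin L (MES pH 6.0, DTT, 15 min, 37 °C; quenched with 10 μM E-64). Enzyme (833 ng/ml) preincubated 15 min RT with compound in MES pH 5.5/DTT, then 2 μM Bodipy FL-bradykinin for 15 min RT. Capillary electrophoresis product/substrate peak areas; IC50 from % inhibition.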

| SMILES | IC50 |
| --- | --- |
| O=C(O)C[C@@H](NC(=O)c1cc(O)n(-c2ccccc2F)n1)c1ccc(-c2ccc(F)cc2)cc1 [Example 147] | < 100 nM |
| O=C(O)C[C@H](NC(=O)c1cc(O)n(-c2ccccc2)n1)c1cccc(F)c1 [Example 166] | 1000 to 30000 nM |
| COc1ccccc1[C@H](CC(=O)O)NC(=O)c1cc(O)n(-c2cccc(Cl)c2)n1 [Example 253] | 100 to 1000 nM |
| COc1ccc(C(CC(=O)O)NC(=O)c2cc(O)n(-c3ccc(F)cc3F)n2)c(Cl)c1 (stereo not shown) [Example 179] | 100 to 1000 nM |
| COc1ccc(C(CC(=O)O)NC(=O)c2cc(O)n(-c3ccccc3Cl)n2)c(OC)c1 (stereo not shown) [Example 207] | 100 to 1000 nM |
| O=C(O)CC(NC(=O)c1cc(O)n(-c2ccccc2F)n1)c1cccc(Cl)c1F (stereo not shown) [Example 244] | 100 to 1000 nM |
| O=C(O)CC(NC(=O)c1cc(O)n(-c2ccccc2Cl)n1)c1cccc(C(F)(F)F)c1 (stereo not shown) [Example 206] | 100 to 1000 nM |
| COc1ccc(C(CC(=O)O)NC(=O)c2cc(O)n(-c3ccccc3)n2)c(OC)c1 (stereo not shown) [Example 161] | 1000 to 30000 nM |
| O=C(O)CC(NC(=O)c1cc(O)n(-c2ccccc2F)n1)c1ccc(-c2cccc(F)c2)cc1 (stereo not shown) [Example 242] | 100 to 1000 nM |
| O=C(O)C[C@H](NC(=O)c1cc(O)n(-c2ccccc2Cl)n1)c1ccc(-c2ccc(F)cc2)cc1 [Example 148] | 1000 to 30000 nM |

Same assay, conditions: read-out: Activity (2): Cathepsin A inhibitory activity (IC50 class)

| SMILES | IC50 |
| --- | --- |
| COc1cc(C(=O)NC(CC(=O)O)c2ccc(F)cc2)nn1-c1ccccc1F (stereo not shown) [Example 678] | 100 to 1000 nM |
| Cc1ccccc1[C@H](CC(=O)O)NC(=O)c1cc(O)n(-c2cc(F)cc(F)c2)n1 [Example 586] | 100 to 1000 nM |
| O=C(O)C[C@H](NC(=O)c1cc(OCC2CC2)n(-c2ccccc2F)n1)c1ccc(Cl)cc1Cl [Example 693] | 100 to 1000 nM |
| O=C(O)CC(NC(=O)c1cc(O)n(-c2ccccc2F)n1)c1ccc(-c2cccc(Cl)c2)cc1 (stereo not shown) [Example 541] | 100 to 1000 nM |
| O=C(O)CC(NC(=O)c1cc(OCC2CC2)n(-c2ccccc2F)n1)c1cc(Cl)ccc1Cl (stereo not shown) [Example 704] | < 100 nM |
| Cc1ccccc1[C@H](CC(=O)O)NC(=O)c1cc(OCC2CC2)n(-c2c(F)cccc2F)n1 [Example 634] | < 100 nM |
| O=C(O)CC(NC(=O)c1cc(O)n(-c2ccccc2C(F)(F)F)n1)c1ccc(-c2ccc(F)cc2)cc1 (stereo not shown) [Example 569] | 100 to 1000 nM |
| O=C(O)C[C@H](NC(=O)c1cc(OCC2CC2)n(-c2ccccc2F)n1)c1ccc(C(F)(F)F)cc1 [Example 694] | < 100 nM |
| CCOc1cc(C(=O)N[C@@H](CC(=O)O)c2ccc(Cl)cc2)nn1-c1ccccc1Cl [Example 733] | < 100 nM |
| CCOc1cc(C(=O)NC(CC(=O)O)c2ccc(C)cc2C)nn1-c1ccccc1Cl (stereo not shown) [Example 728] | < 100 nM |
| CCOc1cc(C(=O)NC(CC(=O)O)c2cccc(F)c2C)nn1-c1ccccc1F (stereo not shown) [Example 706] | < 100 nM |

Same assay, conditions: read-out: Activity (2): Cathepsin A inhibitory activity, IC50 class

| SMILES | IC50 |
| --- | --- |
| O=C(O)C[C@H](NC(=O)c1cc(O)n(-c2cccc(F)c2)n1)c1ccccc1Br [Example 302] | 100 to 1000 nM |
| O=C(O)CC(NC(=O)c1cc(O)n(-c2ccccc2)n1)c1ccccc1Cl (stereo not shown) [Example 20] | 100 to 1000 nM |
| CCc1ccc(C(CC(=O)O)NC(=O)c2cc(O)n(-c3cc(C)ccc3C)n2)cc1 (stereo not shown) [Example 41] | 1000 to 30000 nM |
| O=C(O)C[C@H](NC(=O)c1cc(O)n(-c2ccccc2)n1)c1ccc(C(F)(F)F)cc1 [Example 99] | 100 to 1000 nM |
| COc1ccc([C@H](CC(=O)O)NC(=O)c2cc(O)n(-c3ccccc3Cl)n2)cc1 [Example 392] | 100 to 1000 nM |
| Cc1cc(C)cc(-n2nc(C(=O)NC(CC(=O)O)c3ccccc3C)cc2O)c1 (stereo not shown) [Example 78] | 1000 to 30000 nM |
| Cc1cc(F)ccc1C(CC(=O)O)NC(=O)c1cc(O)n(-c2cccc(F)c2)n1 (stereo not shown) [Example 326] | 100 to 1000 nM |
| COc1ccccc1[C@H](CC(=O)O)NC(=O)c1cc(O)n(-c2ccccc2F)n1 [Example 122] | 100 to 1000 nM |
| O=C(O)C[C@H](NC(=O)c1cc(O)n(-c2ccc(F)cc2)n1)c1ccccc1F [Example 366] | 100 to 1000 nM |
| Cc1ccc(C)c(-n2nc(C(=O)NC(CC(=O)O)c3cccc(F)c3)cc2O)c1 (stereo not shown) [Example 49] | 1000 to 30000 nM |
| O=C(O)CC(NC(=O)c1cc(O)n(-c2ccccc2)n1)c1cccc(C(F)(F)F)c1 (stereo not shown) [Example 67] | 100 to 1000 nM |
| CC(C)[C@](C)(O)COc1cc(C(=O)N[C@@H](CC(=O)O)c2ccc(Cl)cc2Cl)nn1-c1ccccc1F [Example 849, (S)-3-(2,4-Dichloro-phenyl)-3-{[1-(2-fluoro-phenyl)-5-((S)-2-hydroxy-2,3-dimethyl-butoxy)-1H-pyrazole-3-carbonyl]-amino}-propionic acid] | < 100 nM |
| O=C(O)C[C@H](NC(=O)c1cc(O)n(-c2ccccc2F)n1)c1ccc(C(F)(F)F)cc1 [Example 121] | 100 to 1000 nM |
| Cc1ccccc1[C@H](CC(=O)O)NC(=O)c1cc(O)n(-c2cccc(F)c2)n1 [Example 74] | < 100 nM |
| O=C(O)CC(NC(=O)c1cc(O)n(-c2ccccc2)n1)c1ccc(Oc2ccccc2)cc1 (stereo not shown) [Example 102] | 100 to 1000 nM |
| O=C(O)C[C@H](NC(=O)c1cc(O)n(-c2cccc(F)c2)n1)c1ccc(C(F)(F)F)cc1 [Example 313] | 1000 to 30000 nM |
| Cc1ccc(C)c(-n2nc(C(=O)NC(CC(=O)O)c3ccc(C#N)cc3)cc2O)c1 (stereo not shown) [Example 52] | 1000 to 30000 nM |

Same assay, conditions: recombinant human cathepsin A 833 ng/ml, Bodipy FL-labeled bradykinin 2 μM, pH 5.5; read-out: CATH-A IC50

| SMILES | IC50 |
| --- | --- |
| O=C(O)C[C@H](NC(=O)c1cc(O)n(-c2ccc(F)cc2F)n1)c1ccccc1Cl [Example 502, (S)-3-(2-Chloro-phenyl)-3-{[1-(2,4-difluoro-phenyl)-5-hydroxy-1H-pyrazole-3-carbonyl]-amino}-propionic acid] | 116 nM |
| COc1ccc(F)cc1C(CC(=O)O)NC(=O)c1cc(O)n(-c2ccccc2)n1 (stereo not shown) [Example 498, 3-(5-Fluoro-2-methoxy-phenyl)-3-[(5-hydroxy-1-phenyl-1H-pyrazole-3-carbonyl)-amino]-propionic acid] | 143 nM |
| O=C(O)CC(NC(=O)c1cc(O)n(-c2ccccc2Cl)n1)c1cc(F)ccc1C(F)(F)F (stereo not shown) [Example 460, 3-{[1-(2-Chloro-phenyl)-5-hydroxy-1H-pyrazole-3-carbonyl]-amino}-3-(5-fluoro-2-trifluoromethyl-phenyl)-propionic acid] | 118 nM |
| O=C(O)CC(NC(=O)c1cc(O)n(-c2ccc(F)cc2F)n1)c1cc(Cl)ccc1Cl (stereo not shown) [Example 500, 3-(2,5-Dichloro-phenyl)-3-{[1-(2,4-difluoro-phenyl)-5-hydroxy-1H-pyrazole-3-carbonyl]-amino}-propionic acid] | 86.3 nM |
| O=C(O)CC(NC(=O)c1cc(O)n(-c2ccccc2)n1)c1cc(F)ccc1Cl (stereo not shown) [Example 495, 3-(2-Chloro-5-fluoro-phenyl)-3-[(5-hydroxy-1-phenyl-1H-pyrazole-3-carbonyl)-amino]-propionic acid] | 213 nM |
| O=C(O)CC(NC(=O)c1cc(O)n(-c2ccc(Cl)cc2)n1)c1cc(F)ccc1F (stereo not shown) [Example 472, 3-{[1-(4-Chloro-phenyl)-5-hydroxy-1H-pyrazole-3-carbonyl]-amino}-3-(2,5-difluoro-phenyl)-propionic acid] | 4090 nM |
| O=C(O)C[C@H](NC(=O)c1cc(O)n(-c2ccc(Cl)cc2)n1)c1ccccc1Cl [Example 474, (S)-3-(2-Chloro-phenyl)-3-{[1-(4-chloro-phenyl)-5-hydroxy-1H-pyrazole-3-carbonyl]-amino}-propionic acid] | 207 nM |

Same assay, conditions: recombinant human cathepsin A; read-out: Activity (2): Cathepsin A inhibitory activity, IC50 class

| SMILES | IC50 |
| --- | --- |
| CN(C)c1ccc(C(CC(=O)O)NC(=O)c2cc(O)n(-c3ccccc3Cl)n2)c(Cl)c1 (stereo not shown) [Example 456] | 1000 to 30000 nM |
| O=C(O)C[C@H](NC(=O)c1cc(O)n(-c2cccc(F)c2)n1)c1c(F)cccc1F [Example 434] | 100 to 1000 nM |
| COc1ccc(C(CC(=O)O)NC(=O)c2cc(O)n(-c3cccc(F)c3)n2)c(C)c1 (stereo not shown) [Example 426] | 100 to 1000 nM |
| O=C(O)C[C@H](NC(=O)c1cc(O)n(-c2ccc(F)cc2F)n1)c1ccccc1Cl [Example 502, (S)-3-(2-Chloro-phenyl)-3-{[1-(2,4-difluoro-phenyl)-5-hydroxy-1H-pyrazole-3-carbonyl]-amino}-propionic acid] | 100 to 1000 nM |
| O=C(O)CC(NC(=O)c1cc(O)n(-c2ccccc2F)n1)c1ccc(-c2ccccn2)cc1 (stereo not shown) [Example 481] | 100 to 1000 nM |
| COc1ccc(F)cc1C(CC(=O)O)NC(=O)c1cc(O)n(-c2ccccc2)n1 (stereo not shown) [Example 498, 3-(5-Fluoro-2-methoxy-phenyl)-3-[(5-hydroxy-1-phenyl-1H-pyrazole-3-carbonyl)-amino]-propionic acid] | 100 to 1000 nM |
| O=C(O)CC(NC(=O)c1cc(O)n(-c2ccccc2Cl)n1)c1cc(F)ccc1C(F)(F)F (stereo not shown) [Example 460, 3-{[1-(2-Chloro-phenyl)-5-hydroxy-1H-pyrazole-3-carbonyl]-amino}-3-(5-fluoro-2-trifluoromethyl-phenyl)-propionic acid] | 100 to 1000 nM |
| O=C(O)CC(NC(=O)c1cc(O)n(-c2ccccc2F)n1)c1cc(F)ccc1F (stereo not shown) [Example 517] | 100 to 1000 nM |
| O=C(O)CC(NC(=O)c1cc(O)n(-c2ccc(F)cc2F)n1)c1cc(Cl)ccc1Cl (stereo not shown) [Example 500, 3-(2,5-Dichloro-phenyl)-3-{[1-(2,4-difluoro-phenyl)-5-hydroxy-1H-pyrazole-3-carbonyl]-amino}-propionic acid] | < 100 nM |
| O=C(O)CC(NC(=O)c1cc(O)n(-c2ccccc2)n1)c1cc(F)ccc1Cl (stereo not shown) [Example 495, 3-(2-Chloro-5-fluoro-phenyl)-3-[(5-hydroxy-1-phenyl-1H-pyrazole-3-carbonyl)-amino]-propionic acid] | 100 to 1000 nM |
| COc1ccccc1[C@@H](NC(=O)c1cc(O)n(-c2cccc(Cl)c2)n1)[C@@H](O)C(=O)O [Example 416] | 1000 to 30000 nM |
| O=C(O)CC(NC(=O)c1cc(O)n(-c2ccc(Cl)cc2)n1)c1cc(F)ccc1F (stereo not shown) [Example 472, 3-{[1-(4-Chloro-phenyl)-5-hydroxy-1H-pyrazole-3-carbonyl]-amino}-3-(2,5-difluoro-phenyl)-propionic acid] | 1000 to 30000 nM |
| O=C(O)C[C@H](NC(=O)c1cc(O)n(-c2ccc(Cl)cc2)n1)c1ccccc1Cl [Example 474, (S)-3-(2-Chloro-phenyl)-3-{[1-(4-chloro-phenyl)-5-hydroxy-1H-pyrazole-3-carbonyl]-amino}-propionic acid] | 100 to 1000 nM |
